Data on 18 compounds can be found in patent US12564638B2 (SHANGHAITECH UNIVERSITY, priority 2019, dated 2026).

Each structure is given as a SMILES string. pIC50: −log10 of the molar value.

The subject of one assay is HCC827 cells (EGFR Exon19 del, non-small cell lung cancer cells). Put plainly: Cell viability assay (WST/CCK8), HCC827 cells. The settings on record: Homo sapiens, HCC827, 72 h, HCC827 (Exon19 Del), 72 hours, WST (CCK8); read-out: IC50 (half inhibitory concentration). The format is cell-based. The text has this:
The cell lines with abnormal EGFR expression used are as follows: • HCC827 cells (EGFR Exon19 del, non-small cell lung cancer cells); • PC9 cells (EGFR Exon 19 del, non-small cell lung cancer cells); • PC9BracA1 (EGFR Exon 19 del+T790M, non-small cell lung cancer cells) • H1975 (EGFR Exon T790M+L858R mutation, non-small cell lung cancer cell line) • BT474 cells (HER2 positive breast cancer cells)
All of the half inhibitory concentrations (IC50) of these compounds of the present invention were determined with WST reagent from Fuyuan Biotec Company. The specific experiment procedures are as follows: Cancer cells were planted in 96-well-plate at the density of 3 000 cells per well with 100 μL RPMI1640 completed culture medium. In the next day, compounds with indicated concentrations were added to the cells, DMSO was used as the negative control and the EGFR TKIs were used to treat cells as the positive groups. After 72 hours drug treatment, cell viability was measured by using the WST reagent following the instructions.
The cells were treated with the gradient concentration of these compounds (the maximum concentration: 10 μM; 3-fold dilution ratio, 10 concentration gradients) for 72 hours and then incubated with the WST (CCK8) reagent to determine the cell viability.
Regarding `COc1cc2ncnc(Nc3ccc(F)c(Cl)c3)c2cc1NC(=O)/C=C/CN1CCN(C(=O)COCCOCCOCCOCCSc2cccc3c2CN(C2CCC(=O)NC2=O)C3=O)CC1` (stereo not drawn) [SIAIS262003, (E)-N-(4-((3-chloro-4-fluorophenyl)amino)-7-methoxyquinazolin-6-yl)-4-(4-(14-((2-(2,6-dioxopiperidin-3-yl)-1-oxoisoindolin-4-yl)thio)-3,6,9,12-tetraoxatetradecan-1-oyl)piperazin-1-yl)but-2-enamide], the pIC50 is 6.98.
With `COc1cc2ncnc(Nc3ccc(F)c(Cl)c3)c2cc1NC(=O)/C=C/CN1CCN(C(=O)CCOCCOCCOCCNc2cccc3c2C(=O)N(C2CCC(=O)NC2=O)C3=O)CC1` (stereo not drawn) [SIAIS249047, (E)-N-(4-((3-chloro-4-fluorophenyl)amino)-7-methoxyquinazolin-6-yl)-4-(4-(3-(2-(2-(2-((2-(2,6-dioxopiperidin-3-yl)-1,3-dioxoisoindolin-4-yl)amino)ethoxy)ethoxy)ethoxy)propanoyl)piperazin-1-yl)but-2-enamide], the pIC50 is 7.63.
As to `COc1cc2ncnc(Nc3ccc(F)c(Cl)c3)c2cc1NC(=O)/C=C/CN1CCC(N2CCN(CCCCCCCCCCCSc3cccc4c3CN(C3CCC(=O)NC3=O)C4=O)CC2)CC1` (stereo not drawn) [SIAIS337040, (E)-N-(4-((3-chloro-4-fluorophenyl)amino)-7-methoxyquinazolin-6-yl)-4-(4-(4-(11-((2-(2,6-dioxopiperidin-3-yl)-1-oxoisoindolin-4-yl)thio)undecyl)piperazin-1-yl)piperidin-1-yl)but-2-enamide], the pIC50 was 7.57.

Staying with this assay, now noted: Homo sapiens, HCC827, 72 h, Table 3, poziotinib-based compounds; HCC827 (Exon19 Del); 72 hours; WST (CCK8); read-out: IC50 (half inhibitory concentration).
As to `COc1cc2ncnc(Nc3ccc(Cl)c(Cl)c3F)c2cc1OC1CCN(C(=O)CCOCCOCCOCCC(=O)N[C@H](C(=O)N2C[C@H](O)C[C@H]2C(=O)NCc2ccc(-c3scnc3C)cc2)C(C)(C)C)CC1` [SIAIS249026, (2S,4R)-1-((S)-2-(tert-butyl)-16-(4-((4-((3,4-dichloro-2-fluorophenyl)amino)-7-methoxyquinazolin-6-yl)oxy)piperidin-1-yl)-4,16-dioxo-7,10,13-trioxa-3-azahexadecan-1-oyl)-4-hydroxy-N-(4-(4-methylthiazol-5-yl)benzyl)pyrrolidine-2-carboxamide], the pIC50 was 6.58.
Take `COc1cc2ncnc(Nc3ccc(Cl)c(Cl)c3F)c2cc1OC1CCN(C(=O)CCC(=O)N[C@H](C(=O)N2C[C@H](O)C[C@H]2C(=O)NCc2ccc(-c3scnc3C)cc2)C(C)(C)C)CC1` [SIAIS249020, (2S,4R)-1-((S)-2-(4-(4-((4-((3,4-dichloro-2-fluorophenyl)amino)-7-methoxyquinazolin-6-yl)oxy)piperidin-1-yl)-4-oxobutanamido)-3,3-dimethylbutanoyl)-4-hydroxy-N-(4-(4-methylthiazol-5-yl)benzyl)pyrrolidine-2-carboxamide]: the pIC50 is 7.12.
With `COc1cc2ncnc(Nc3ccc(Cl)c(Cl)c3F)c2cc1OC1CCN(C(=O)CCOCCOCCNc2cccc3c2C(=O)N(C2CCC(=O)NC2=O)C3=O)CC1` (stereo not drawn) [SIAIS249030, 4-((2-(2-(3-(4-((4-((3,4-dichloro-2-fluorophenyl)amino)-7-methoxyquinazolin-6-yl)oxy)piperidin-1-yl)-3-oxopropoxy)ethoxy)ethyl)amino)-2-(2,6-dioxopiperidin-3-yl)isoindoline-1,3-dione], the pIC50 was 8.20.
For `COc1cc2ncnc(Nc3ccc(Cl)c(Cl)c3F)c2cc1OC1CCN(C(=O)CCOCCOCCOCCOCCOCCNc2cccc3c2C(=O)N(C2CCC(=O)NC2=O)C3=O)CC1` (stereo not drawn) [SIAIS249033, 4-((18-(4-((4-((3,4-dichloro-2-fluorophenyl)amino)-7-methoxyquinazolin-6-yl)oxy)piperidin-1-yl)-18-oxo-3,6,9,12,15-pentaoxaoctadecyl)amino)-2-(2,6-dioxopiperidin-3-yl)isoindoline-1,3-dione], the pIC50 was 7.89.

The same assay, now with this note: Homo sapiens, HCC827, 72 h, Table 4, gefitinib and sapitinib-based compounds; HCC827 (Exon19 Del); 72 hours; WST; read-out: IC50 (half inhibitory concentration).
In the case of `COc1cc2ncnc(Nc3ccc(F)c(Cl)c3)c2cc1OC1CCN(CC(=O)NCCCCSc2cccc3c2CN(C2CCC(=O)NC2=O)C3=O)CC1` (stereo not drawn) [SIAIS293049, 2-(4-((4-((3-chloro-4-fluorophenyl)amino)-7-methoxyquinazolin-6-yl)oxy)piperidin-1-yl)-N-(4-((2-(2,6-dioxopiperidin-3-yl)-1-oxoisoindolin-4-yl)thio)butyl)acetamide], the pIC50 was 8.55.
For the compound `COc1cc2ncnc(Nc3cccc(Cl)c3F)c2cc1OC1CCN(CC(=O)NCCCCCCCCSc2cccc3c2CN(C2CCC(=O)NC2=O)C3=O)CC1` (stereo not drawn) [SIAIS293070, 2-(4-((4-((3-chloro-2-fluorophenyl)amino)-7-methoxyquinazolin-6-yl)oxy)piperidin-1-yl)-N-(8-((2-(2,6-dioxopiperidin-3-yl)-1-oxoisoindolin-4-yl)thio)octyl)acetamide], the pIC50 is 7.85.
As to `COc1cc2ncnc(Nc3cccc(Cl)c3F)c2cc1OC1CCN(CC(=O)NCCCCCCCSc2cccc3c2CN(C2CCC(=O)NC2=O)C3=O)CC1` (stereo not drawn) [SIAIS293069, 2-(4-((4-((3-chloro-2-fluorophenyl)amino)-7-methoxyquinazolin-6-yl)oxy)piperidin-1-yl)-N-(7-((2-(2,6-dioxopiperidin-3-yl)-1-oxoisoindolin-4-yl)thio)heptyl)acetamide], the pIC50 is 8.03.
The same measure, in the same setting: the value for `CNC(=O)CN1CCC(Oc2cc3c(Nc4cccc(Cl)c4F)ncnc3cc2OC)CC1` [Sapitinib (AZD8931), sapitinib, reference compound] was 9.40; that for `COc1cc2ncnc(Nc3ccc(F)c(Cl)c3)c2cc1OCCCN1CCC(N2CCN(C(=O)CCCCCSc3cccc4c3CN(C3CCC(=O)NC3=O)C4=O)CC2)CC1` (stereo not drawn) [SIAIS262087, 3-(4-((6-(4-(1-(3-((4-((3-chloro-4-fluorophenyl)amino)-7-methoxyquinazolin-6-yl)oxy)propyl)piperidin-4-yl)piperazin-1-yl)-6-oxohexyl)thio)-1-oxoisoindolin-2-yl)piperidine-2,6-dione] was 7.51; that for `COc1cc2ncnc(Nc3ccc(F)c(Cl)c3)c2cc1OC1CCN(CC(=O)NCCCCCCSc2cccc3c2CN(C2CCC(=O)NC2=O)C3=O)CC1` (stereo not drawn) [SIAIS293050, 2-(4-((4-((3-chloro-4-fluorophenyl)amino)-7-methoxyquinazolin-6-yl)oxy)piperidin-1-yl)-N-(6-((2-(2,6-dioxopiperidin-3-yl)-1-oxoisoindolin-4-yl)thio)hexyl)acetamide] was 8.82.

The same assay, now with this note: Homo sapiens, HCC827, 72 h, Table 5, afatinib-based compounds; HCC827 (Exon19 Del); 72 hours; WST; read-out: IC50 (half inhibitory concentration).
In the case of `O=C1CCC(N2C(=O)c3cccc(SCCOCC(=O)Nc4cc5c(Nc6ccc(F)c(Cl)c6)ncnc5cc4O[C@H]4CCOC4)c3C2=O)C(=O)N1` (stereo partly drawn) [SIAIS184152, N-(4-((3-chloro-4-fluorophenyl)amino)-7-(((S)-tetrahydrofuran-3-yl)oxy)quinazolin-6-yl)-2-(2-((2-(2,6-dioxopiperidin-3-yl)-1,3-dioxoisoindolin-4-yl)thio)ethoxy)acetamide], the pIC50 was 6.88.

The assay is the same for the next values; noted with them: Homo sapiens, HCC827, 72 h, Table 6, canertinib-based compounds; HCC827 (Exon19 Del); 72 hours; WST; read-out: IC50 (half inhibitory concentration).
`C=CC(=O)Nc1cc2c(Nc3ccc(F)c(Cl)c3)ncnc2cc1OCCCN1CCNCC1` [Caneritinib derivative A (SIAIS293064), N-(4-((3-chloro-4-fluorophenyl)amino)-7-(3-(piperazin-1-yl)propoxy)quinazolin-6-yl)acrylamide]: the pIC50 is 8.35.

The same assay, now with this note: Homo sapiens, HCC827, 72 h, Table 8, osimertinib-based compounds; HCC827; 72 hours; WST; read-out: IC50 (half inhibitory concentration).
As to `C=CC(=O)Nc1cc(Nc2nccc(-c3cn(C)c4ccccc34)n2)c(OC)cc1N(C)CCN(C)C(=O)CCCCCCCCCCSc1cccc2c1CN(C1CCC(=O)NC1=O)C2=O` (stereo not drawn) [SIAIS337061, N-(2-((2-acrylamido-5-methoxy-4-((4-(1-methyl-1H-indol-3-yl)pyrimidin-2-yl)amino)phenyl)(methyl)amino)ethyl)-11-((2-(2,6-dioxopiperidin-3-yl)-1-oxoisoindolin-4-yl)thio)-N-methylundecanamide], the pIC50 is 6.45.
On to `C=CC(=O)Nc1cc(Nc2nccc(-c3cn(C)c4ccccc34)n2)c(OC)cc1N(C)CCN(C)C(=O)COCCOCCSc1cccc2c1CN(C1CCC(=O)NC1=O)C2=O` (stereo not drawn) [SIAIS337075, N-(2-((2-(2-(2-(2-((2-(2,6-dioxopiperidin-3-yl)-1-oxoisoindolin-4-yl)thio)ethoxy)ethoxy)-N-methylacetamido)ethyl)(methyl)amino)-4-methoxy-5-((4-(1-methyl-1H-indol-3-yl)pyrimidin-2-yl)amino)phenyl)acrylamide], for which the pIC50 was 6.77.
As to `C=CC(=O)Nc1cc(Nc2nccc(-c3cn(C)c4ccccc34)n2)c(OC)cc1N(C)CCN(C)C(=O)CCCCCCCCSc1cccc2c1CN(C1CCC(=O)NC1=O)C2=O` (stereo not drawn) [SIAIS337059, N-(2-((2-acrylamido-5-methoxy-4-((4-(1-methyl-1H-indol-3-yl)pyrimidin-2-yl)amino)phenyl)(methyl)amino)ethyl)-9-((2-(2,6-dioxopiperidin-3-yl)-1-oxoisoindolin-4-yl)thio)-N-methylnonanamide], the pIC50 was 7.33.
